Several values for one entry are separate records, joined by “and”; a condition that tells them apart may be missing. Identical values can stand only once.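 Five compound concentrations were applied to cells in 96-well plates for 48 hours; endpoints were derived by simple linear interpolation of the resulting dose-response curve. GI50: concentration for 50% inhibition of growth. Definition used: TGI = concentration required for complete inhibition of growth.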
What was measured:
Assay in all cases: NCI anticancer screen, dose series, 48 h
M19-MEL melanoma = tested on: M19-MEL melanoma
HOP-18 NSCLC = tested on: HOP-18 NSCLC
DLD-1 colon = tested on: DLD-1 colon
DMS 273 small cell lung = tested on: DMS 273 small cell lung
SNB-78 CNS = tested on: SNB-78 CNS
MDA-MB-231 breast = tested on: MDA-MB-231 breast
DU-145 prostate = tested on: DU-145 prostate
BT-549 breast = tested on: BT-549 breast
T-47D breast = tested on: T-47D breast
PC-3 prostate = tested on: PC-3 prostate

NC(N)=NS(=O)(=O)c1ccc(NC(=O)c2ccc(Cl)c3c(Nc4ccc(S(=O)(=O)N=C(N)N)cc4)c4ccccc4nc23)cc1
TGI (M19-MEL melanoma): > 100 µM | TGI (HOP-18 NSCLC): > 100 µM | TGI (DLD-1 colon): > 100 µM | TGI (DMS 273 small cell lung): > 100 µM | TGI (SNB-78 CNS): > 100 µM

C/C(=C\c1ccccc1)C(O)S(=O)(=O)O (stereo not given)
TGI (M19-MEL melanoma): > 100 µM | TGI (HOP-18 NSCLC): > 100 µM | TGI (DLD-1 colon): > 100 µM | TGI (DMS 273 small cell lung): > 100 µM

Cc1cc(Cl)ccc1N1C(=O)C(=O)C(c2nc3ccccc3s2)/C(=N\NC(=O)c2ccccc2O)C1=O (stereo not given)
TGI (M19-MEL melanoma): > 100 µM | TGI (HOP-18 NSCLC): > 100 µM | TGI (DLD-1 colon): > 100 µM | TGI (DMS 273 small cell lung): > 100 µM | TGI (SNB-78 CNS): > 100 µM

CC(C)c1cccc2sc(NC(=O)C(=O)CC(=O)c3ccc(F)cc3)nc12
TGI (M19-MEL melanoma): > 100 µM | TGI (DLD-1 colon): > 100 µM | TGI (DMS 273 small cell lung): > 100 µM | TGI (SNB-78 CNS): > 100 µM

COc1cc(C(C)c2cc3c(cc2OCCOCCOc2cc4c(cc2C(C)c2cc(OC)c(OC)c(OC)c2)OCO4)OCO3)cc(OC)c1OC (stereo not given)
GI50 (M19-MEL melanoma): > 100 µM | TGI (M19-MEL melanoma): > 100 µM | TGI (HOP-18 NSCLC): > 10 µM | GI50 (DLD-1 colon): > 100 µM | TGI (DLD-1 colon): > 100 µM | TGI (DMS 273 small cell lung): > 10 µM | TGI (SNB-78 CNS): > 10 µM

NCC(=O)OCN1C(=O)C2C3C=CC(C2C1=O)C1C2C(=O)N(COC(=O)CN)C(=O)C2C31 (stereo not given)
TGI (M19-MEL melanoma): 45.1 µM and 37.9 µM | TGI (HOP-18 NSCLC): 54.4 µM and 73.7 µM | TGI (DLD-1 colon): 54.2 µM and 60.8 µM | TGI (DMS 273 small cell lung): 33.6 µM and 37.3 µM | TGI (SNB-78 CNS): > 100 µM

CCOc1ccccc1N=C(NC(=O)CC)SC
GI50 (M19-MEL melanoma): > 100 µM | TGI (M19-MEL melanoma): > 100 µM | TGI (HOP-18 NSCLC): > 10 µM | GI50 (DLD-1 colon): > 10 µM | TGI (DLD-1 colon): > 100 µM | GI50 (DMS 273 small cell lung): > 100 µM | TGI (DMS 273 small cell lung): > 100 µM | TGI (SNB-78 CNS): > 10 µM

CC(=O)N1C(=O)C(=O)c2cc(Cl)ccc21
TGI (M19-MEL melanoma): > 100 µM | TGI (HOP-18 NSCLC): > 100 µM | TGI (DLD-1 colon): > 100 µM | TGI (DMS 273 small cell lung): > 100 µM | TGI (SNB-78 CNS): > 100 µM

CC1=C(CC/C(C)=C/CCC2(C)CCC([C@H](C)C(=O)O)OO2)C(C)(C)CCC1 (stereo not given in full) (tested in a mixture with another compound)
TGI (M19-MEL melanoma): > 100 µM | TGI (DLD-1 colon): > 100 µM | TGI (DMS 273 small cell lung): > 100 µM | TGI (SNB-78 CNS): > 100 µM

O=C1c2ccccc2C(=O)N1C/C=N/NS(=O)(=O)c1ccc(Cl)cc1
TGI (M19-MEL melanoma): > 100 µM | TGI (DLD-1 colon): > 100 µM | TGI (DMS 273 small cell lung): > 100 µM

CC(C)(C)c1cc2c(OP(c3ccccc3)c3ccccc3)c(c1)Cc1cc(C(C)(C)C)cc(c1OP(c1ccccc1)c1ccccc1)Cc1cc(C(C)(C)C)cc(c1OP(c1ccccc1)c1ccccc1)Cc1cc(C(C)(C)C)cc(c1OP(c1ccccc1)c1ccccc1)C2
GI50 (M19-MEL melanoma): > 50 µM | TGI (M19-MEL melanoma): > 50 µM | TGI (HOP-18 NSCLC): > 5 µM | GI50 (DLD-1 colon): > 50 µM | TGI (DLD-1 colon): > 50 µM | GI50 (DMS 273 small cell lung): > 50 µM | TGI (DMS 273 small cell lung): > 50 µM | TGI (SNB-78 CNS): > 5 µM

CCN(CC)CCNc1ccc(CO)c2sc3ccccc3c(=O)c12
GI50 (MDA-MB-231 breast): 4.26 µM and 4.92 µM | TGI (MDA-MB-231 breast): 21.7 µM and 20.6 µM | GI50 (DU-145 prostate): 2.99 µM | TGI (DU-145 prostate): 9.87 µM and 27.6 µM | GI50 (BT-549 breast): 6.99 µM | TGI (BT-549 breast): 21.9 µM and 26.9 µM | GI50 (T-47D breast): 4.84 µM | TGI (T-47D breast): 17.8 µM and 28.6 µM | TGI (M19-MEL melanoma): 26.5 µM and 31.6 µM | GI50 (PC-3 prostate): 3.65 µM | TGI (PC-3 prostate): 17.5 µM and 17.8 µM | GI50 (HOP-18 NSCLC): 3.02 µM and 11.4 µM | TGI (HOP-18 NSCLC): 29.7 µM and 24.6 µM | TGI (SNB-78 CNS): 35.1 µM and 28.4 µM

CCC1N2CCCCC2[C@@H]2c3[nH]c4ccccc4c3CCN12 (stereo not given in full)
TGI (M19-MEL melanoma): > 100 µM | TGI (HOP-18 NSCLC): > 100 µM | TGI (DLD-1 colon): > 100 µM | TGI (DMS 273 small cell lung): > 100 µM | TGI (SNB-78 CNS): > 100 µM

CC(=O)C1C(=O)C(=O)N(c2ccc(Cl)cc2C)C1=O (stereo not given)
TGI (M19-MEL melanoma): > 100 µM | TGI (HOP-18 NSCLC): > 100 µM | TGI (DLD-1 colon): > 100 µM | TGI (SNB-78 CNS): > 100 µM

CC(C)[C@H](COC(C)(C)C)N=CN1CSc2ccccc21
TGI (M19-MEL melanoma): > 100 µM | TGI (DLD-1 colon): > 100 µM | TGI (DMS 273 small cell lung): 37.8 µM | TGI (SNB-78 CNS): 81.5 µM

CCCCCCCCCCSS(=O)(=O)c1ccc(C)cc1
TGI (M19-MEL melanoma): 26.6 µM | TGI (HOP-18 NSCLC): 43.1 µM | TGI (DLD-1 colon): 29.8 µM | TGI (DMS 273 small cell lung): 23 µM | TGI (SNB-78 CNS): 29.5 µM

From PubChem BioAssay (NCI)
